Read-outs that look alike come from different tables or passages of the source. No end group written: not given here.
Legend:
SIRT1 [1] = biological target: T1, SIRT1 (Homo sapiens, UniProt Q96EB6); experiment: DMSO tolerance of SIRT1 mass spectrometry assay; assay type: biochemical
T1 sequence (Q96EB6 1-747): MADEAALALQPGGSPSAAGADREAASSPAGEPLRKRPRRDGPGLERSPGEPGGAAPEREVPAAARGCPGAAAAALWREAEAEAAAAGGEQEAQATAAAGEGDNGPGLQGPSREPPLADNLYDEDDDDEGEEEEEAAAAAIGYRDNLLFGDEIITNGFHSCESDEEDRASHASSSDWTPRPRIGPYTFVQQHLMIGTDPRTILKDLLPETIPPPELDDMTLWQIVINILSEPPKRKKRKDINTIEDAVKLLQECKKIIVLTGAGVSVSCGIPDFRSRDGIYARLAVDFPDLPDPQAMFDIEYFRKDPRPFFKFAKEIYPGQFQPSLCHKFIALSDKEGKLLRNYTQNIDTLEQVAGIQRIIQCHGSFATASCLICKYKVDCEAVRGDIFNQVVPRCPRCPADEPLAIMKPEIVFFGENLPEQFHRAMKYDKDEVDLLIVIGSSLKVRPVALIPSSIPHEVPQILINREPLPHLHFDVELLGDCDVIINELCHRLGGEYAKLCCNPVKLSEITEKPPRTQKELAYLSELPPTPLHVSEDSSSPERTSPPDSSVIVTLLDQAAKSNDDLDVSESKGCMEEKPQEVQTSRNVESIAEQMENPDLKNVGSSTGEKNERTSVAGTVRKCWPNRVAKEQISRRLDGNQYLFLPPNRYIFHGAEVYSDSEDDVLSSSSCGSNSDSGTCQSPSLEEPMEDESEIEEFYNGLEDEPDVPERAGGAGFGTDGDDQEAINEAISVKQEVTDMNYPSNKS
Description: To determine the tolerance of the SIRT1 mass spectrometry assay for DMSO, a rate based experiment was performed at multiple concentrations of DMSO.
Formic acid (10 μL of 10%) was added to all of the wells in column 1 of the 96 well assay plate. Eight concentrations of DMSO (40%, 20%, 10%, 5.0%, 2.5%, 1.25%, 0.625%, and 0.313%) were prepared in buffer containing 50 mM Tris HCl pH 8.0, 137 mM, NaCl, 2.7 mM, KCl, 1 mM MgCl2, 5 mM DTT, and 0.05% BSA.
This DMSO titration was prepared by making a 2000 μL solution of 40% DMSO in 50 mM Tris HCl pH 8.0, 137 mM, NaCl, 2.7 mM, KCl, 1 mM MgCl2, 5 mM DTT, and 0.05%. BSA in well A1 of a Costar 2 mL 96 well Assay Block. Dilution Working Solution (1000 μL; 50 mM Tris HCl pH 8.0, 137 mM, NaCl, 2.7 mM, KCl, 1 mM MgCl2, 5 mM DTT, and 0.05% BSA) was added to wells B1, C1, D1, E1, F1, G1 and H1. 1000 μL of the 40% DMSO in buffer solution was transferred from A1 to […] and the solution was mixed 5 times. This process was repeated with wells in column 1 until well H1 was reached.
Using an 8 channel multi-pipette, 50 μl was transferred from column 1 of the 2 mL 96 well assay block to all columns of a 96 well assay plate.
25 μL of Enzyme Working Solution (40 nM SIRT1, 50 mM Tris HCl pH 8.0, 137 mM, NaCl, 2.7 mM, KCl, 1 mM MgCl2, 5 mM DTT, and 0.05% BSA) was prepared and added to each well of the 96-well round bottom assay plate. […]
At 0, 2, 5, 10, 15, 20, 25, 25, 30, 35, 40, 45, and 60 minutes, the reaction was stopped with 10% formic acid and the conversion of substrate to product was determined by mass spectrometry. The activity of SIRT1 at each concentration of DMSO was monitored by comparing the percent conversion of Acetylated Peptide Substrate to Deacetylated Peptide Product over time. […]
Product formation versus time was plotted for each concentration of DMSO tested. The rate was determined by taking the slope from the linear part of the time course. […]

NCI-H358 cells = experiment: Cellular ATP Assay (ATPLite 1Step normalized to AlamarBlue viability); assay type: cell-based, human; conditions: compounds that raised intracellular ATP levels, 48 hours, read-out: ED50 ATP ASSAY
Description: Cellular ATP levels are an indirect measurement of cellular metabolic rates and, by extension, mitochondrial function. […] The ATP assay is combined with a cellular viability assay so that cellular ATP levels can be normalized to viable cells. Cellular ATP levels were measured using the ATPLite 1Step Kit (PerkinElmer) and cellular viability was measured using the cell permeable dye, AlamarBlue™.
The Cellular ATP Assay is a multiplexed assay that measures both ATP levels and viability of a given cell sample. This assay is run in a 96-well Assay Plate and data are reported as the [ATP]/viability for each well in the Assay Plate.
The ATPLite 1Step™ Kit is a single-step luminescent cell-based assay for detection of ATP. The kit contains lyophilized substrate mixture, comprised of D-luciferin and the firefly (Photinus pyralis) enzyme luciferase. Additionally, the kit contains a detergent-based reconstitution buffer that induces the lysis of cellular membranes. The luciferase in the assay mixture catalyzes a reaction between the free cellular ATP and D-luciferin to produce bioluminescence according to the schematic reaction outlined below. […]
The AlamarBlue™ Assay is a single-step assay that utilizes a soluble, non-toxic, cell permeable dye that is added to cell growth media. […] The reduced dye product gives a fluorescent signal which can be monitored with a fluorescence plate reader (excitation 545 nm and emission 575 nm). The amount of fluorescence generated in a given well is proportional to the number of viable cells. […]
In this assay NCI-H358 cells (obtained from the American Tissue Culture Collection, ATCC) were seeded in 96 well microplates (10^4 cells/well). […] Cell microplates were incubated with dye for 2 hours under growth conditions, and fluorescence was subsequently measured using a plate reader. […] Luminescence was then measured using a plate reader. The ATP signal for each well, measured by the luminescence scan, was normalized to its corresponding cell viability value, measured by the fluorescence scan, to generate the average ATP level per viable cell unit (ATP/vCell). […]

SIRT1 [2] = biological target: T1, SIRT1; experiment: SIRT1 mass spectrometry assay (screening for activation); assay type: biochemical; conditions: for FOLD ACTIVATION MS: activation of SIRT1, mass spectrometry; for EC50: activation of SIRT1, 0.5 μM peptide substrate (SEQ ID NO: 34), 120 μM NAD+, 10 nM SIRT1, 25 min, read-out: ED50 MS ASSAY
Sirt2 = biological target: T2, Sirt2 (Homo sapiens, UniProt Q8IXJ6); conditions: Sirt2, Fluorescent; read-out: Peptide Km; cited from earlier work
T2 sequence (Q8IXJ6 1-389): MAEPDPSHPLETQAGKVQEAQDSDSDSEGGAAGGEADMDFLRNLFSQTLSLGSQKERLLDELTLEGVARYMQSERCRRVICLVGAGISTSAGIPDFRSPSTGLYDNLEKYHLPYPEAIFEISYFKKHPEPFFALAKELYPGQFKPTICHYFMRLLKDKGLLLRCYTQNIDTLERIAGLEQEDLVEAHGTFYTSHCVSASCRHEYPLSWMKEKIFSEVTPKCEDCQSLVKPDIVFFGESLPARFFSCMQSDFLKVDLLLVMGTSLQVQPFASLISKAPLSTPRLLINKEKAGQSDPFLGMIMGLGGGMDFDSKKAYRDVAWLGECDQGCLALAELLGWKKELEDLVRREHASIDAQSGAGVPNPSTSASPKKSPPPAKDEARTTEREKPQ

Sirt3 = biological target: T3, Sirt3 (Homo sapiens, UniProt Q9NTG7); conditions: Sirt3, Fluorescent; read-out: Peptide Km; cited from earlier work
T3 sequence (Q9NTG7 1-399): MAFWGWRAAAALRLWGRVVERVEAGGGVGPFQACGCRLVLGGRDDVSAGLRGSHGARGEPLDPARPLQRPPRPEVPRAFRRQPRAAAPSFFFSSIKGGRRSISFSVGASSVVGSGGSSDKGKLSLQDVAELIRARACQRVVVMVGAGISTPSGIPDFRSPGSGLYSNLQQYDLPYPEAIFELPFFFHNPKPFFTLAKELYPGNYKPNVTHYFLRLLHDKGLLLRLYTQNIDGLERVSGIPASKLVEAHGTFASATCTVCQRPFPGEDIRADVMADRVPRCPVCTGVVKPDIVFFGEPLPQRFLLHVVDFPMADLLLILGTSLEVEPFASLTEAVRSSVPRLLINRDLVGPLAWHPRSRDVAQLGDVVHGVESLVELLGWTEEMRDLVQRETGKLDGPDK

SIRT1 [3] = biological target: T1, SIRT1; conditions: Sirt1, Fluorescent; read-out: Peptide Km; cited from earlier work

FOLD ACTIVATION MS (SIRT1 [2]) | EC50 (SIRT1 [2]) [µM] | Compound | also measured
 |  | C[S+](C)[O-] [DMSO] | decrease of SIRT1 enzyme activity (SIRT1 [1]; 0.625% DMSO): 9.1%; decrease of SIRT1 enzyme activity (SIRT1 [1]; 1.25% DMSO): 21%; decrease of SIRT1 enzyme activity (SIRT1 [1]; 2.5% DMSO): 36%
 |  | O=C(NNc1c2ccccc2nc2ccccc12)c1cccnc1 [compound 11] | EC50 (NCI-H358 cells; Homo sapiens, NCI-H358): < 50 µM
B (Fold Activation<250%) | < 50 | Cc1nc(-c2cccc(Nc3nc4ccccc4s3)c2)cs1 [compound 94] | EC50 (NCI-H358 cells; Homo sapiens, NCI-H358): > 150 µM
 |  | COc1cccc(OC)c1C(=O)Nc1cccc(-c2nc3ccccc3s2)c1 [compound 120] | EC50 (NCI-H358 cells): < 50 µM
B (Fold Activation<250%) | < 50 | COc1cc(C(=O)Nc2ccccc2-c2cn3ccccc3n2)cc(OC)c1OC [compound 267] | 
B (Fold Activation<250%) | < 50 | CN(C)c1cccc(C(=O)Nc2ccccc2-c2cn3ccccc3n2)c1 [compound 268] | 
A (Fold activation>250%) |  | COc1ccc(C(=O)Nc2ccccc2-c2cn3cc(CN4CCNCC4)sc3n2)cc1OC [compound 270] | 
A (Fold activation>250%) | < 50 | COc1cc(C(=O)Nc2ccccc2-c2cn3cc(CN4CCNCC4)sc3n2)cc(OC)c1OC [compound 271] | 
B (Fold Activation<250%) | < 50 | COc1ccc(C(=O)Nc2cccc(-c3nc4cnccc4s3)c2)c(OC)c1 [compound 272] | 
A (Fold activation>250%) |  | COc1cc(C(=O)Nc2cccc(-c3nc4cnccc4s3)c2)cc(OC)c1OC [compound 273] | 
B (Fold Activation<250%) | < 50 | COc1ccc(C(=O)Nc2ncccc2-c2nc3ccccc3[nH]2)cc1OC [compound 276] | 
B (Fold Activation<250%) |  | CC(=O)Nc1ccc(S(=O)(=O)Nc2cccc(-c3nc4ccncc4s3)c2)cc1 [compound 288] | 
B (Fold Activation<250%) |  | COc1ccc(S(=O)(=O)Nc2cccc(-c3nc4ccncc4s3)c2)cc1OC [compound 289] | 
 |  | p53 (aa 317-320) *FL (QPKK; also: fluorescent label; UniProt P04637 317-320, looked up, fragment) | Km (Sirt2): 186 µM; Km (Sirt3): 32 µM
 |  | p53 (aa 379-382) *FL (RHKK(Ac); not fully specified (C-terminus); printed as Arg-His-Lys-Lys; also: fluorescent label; UniProt P04637 379-382, looked up, fragment) | Km (SIRT1 [3]): 64 µM
